Read-outs that look alike come from different tables or passages of the source.
Legend:
Test in all cases: Cysteine liganding, probe competition
Type in all cases: binding
[1] = biological target: T1, UniProt O14508 (Homo sapiens, UniProt O14508); conditions: for inhibition at 100 µM: read-out: percent_inhibition
T1 construct: 200 μL of lysate containing 5 mg/ml proteome was treated with 2 μL of 100× compound stock; endogenous in cells
T1 sequence (O14508 1-198): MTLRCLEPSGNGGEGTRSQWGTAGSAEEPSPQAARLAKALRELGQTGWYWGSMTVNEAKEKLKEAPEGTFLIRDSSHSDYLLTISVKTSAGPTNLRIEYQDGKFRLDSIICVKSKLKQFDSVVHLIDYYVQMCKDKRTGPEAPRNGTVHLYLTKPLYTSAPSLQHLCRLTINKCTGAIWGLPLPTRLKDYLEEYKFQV
Source text: (§1) The following 96-well sample prep protocol was used for sample preparation.

[2] = biological target: T2, UniProt O14544 (Homo sapiens, UniProt O14544); conditions: for inhibition at 100 µM: read-out: percent_inhibition
T2 construct: 200 μL of lysate containing 5 mg/ml proteome was treated with 2 μL of 100× compound stock; endogenous in cells
T2 sequence (O14544 1-535): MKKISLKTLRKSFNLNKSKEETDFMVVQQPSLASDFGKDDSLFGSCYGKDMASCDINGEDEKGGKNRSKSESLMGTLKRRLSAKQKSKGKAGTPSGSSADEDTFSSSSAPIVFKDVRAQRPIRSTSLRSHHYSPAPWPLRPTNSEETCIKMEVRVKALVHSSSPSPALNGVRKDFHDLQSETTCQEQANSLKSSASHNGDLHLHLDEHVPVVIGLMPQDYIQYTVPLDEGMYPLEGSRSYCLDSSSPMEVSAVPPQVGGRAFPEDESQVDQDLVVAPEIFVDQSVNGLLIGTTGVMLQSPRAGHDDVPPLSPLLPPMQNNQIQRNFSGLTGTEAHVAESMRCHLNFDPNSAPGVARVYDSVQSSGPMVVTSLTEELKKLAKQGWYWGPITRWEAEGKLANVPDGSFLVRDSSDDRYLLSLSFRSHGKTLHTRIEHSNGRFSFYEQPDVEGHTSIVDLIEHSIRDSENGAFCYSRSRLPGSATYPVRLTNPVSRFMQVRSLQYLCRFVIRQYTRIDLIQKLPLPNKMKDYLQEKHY
Source text: as §1

[3] = biological target: T3, UniProt Q13064 (Homo sapiens, UniProt Q13064)
T3 construct: Cells were resuspended in cold PBS on ice and sonicated with a probe sonicator to achieve lysis; endogenous in cells
T3 sequence (Q13064 1-507): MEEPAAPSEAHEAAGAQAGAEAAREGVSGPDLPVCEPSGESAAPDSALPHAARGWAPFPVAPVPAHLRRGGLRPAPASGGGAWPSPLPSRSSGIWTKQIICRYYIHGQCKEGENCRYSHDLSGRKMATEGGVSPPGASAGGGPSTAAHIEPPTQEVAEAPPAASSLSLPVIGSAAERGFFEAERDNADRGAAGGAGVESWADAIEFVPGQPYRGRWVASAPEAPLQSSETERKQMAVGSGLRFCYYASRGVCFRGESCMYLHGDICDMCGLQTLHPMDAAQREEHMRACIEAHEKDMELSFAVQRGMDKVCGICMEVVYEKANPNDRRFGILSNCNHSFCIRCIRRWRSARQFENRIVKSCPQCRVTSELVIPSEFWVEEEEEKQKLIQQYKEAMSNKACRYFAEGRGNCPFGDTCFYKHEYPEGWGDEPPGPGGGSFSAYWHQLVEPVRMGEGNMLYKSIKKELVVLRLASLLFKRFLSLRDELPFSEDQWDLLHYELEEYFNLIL
Source text: as §1

[4] = biological target: T4, UniProt Q7Z3V4 (Homo sapiens, UniProt Q7Z3V4)
T4 construct: 200 μL of lysate containing 5 mg/ml proteome was treated with 2 μL of 100× compound stock; endogenous in cells
T4 sequence (Q7Z3V4 1-1068): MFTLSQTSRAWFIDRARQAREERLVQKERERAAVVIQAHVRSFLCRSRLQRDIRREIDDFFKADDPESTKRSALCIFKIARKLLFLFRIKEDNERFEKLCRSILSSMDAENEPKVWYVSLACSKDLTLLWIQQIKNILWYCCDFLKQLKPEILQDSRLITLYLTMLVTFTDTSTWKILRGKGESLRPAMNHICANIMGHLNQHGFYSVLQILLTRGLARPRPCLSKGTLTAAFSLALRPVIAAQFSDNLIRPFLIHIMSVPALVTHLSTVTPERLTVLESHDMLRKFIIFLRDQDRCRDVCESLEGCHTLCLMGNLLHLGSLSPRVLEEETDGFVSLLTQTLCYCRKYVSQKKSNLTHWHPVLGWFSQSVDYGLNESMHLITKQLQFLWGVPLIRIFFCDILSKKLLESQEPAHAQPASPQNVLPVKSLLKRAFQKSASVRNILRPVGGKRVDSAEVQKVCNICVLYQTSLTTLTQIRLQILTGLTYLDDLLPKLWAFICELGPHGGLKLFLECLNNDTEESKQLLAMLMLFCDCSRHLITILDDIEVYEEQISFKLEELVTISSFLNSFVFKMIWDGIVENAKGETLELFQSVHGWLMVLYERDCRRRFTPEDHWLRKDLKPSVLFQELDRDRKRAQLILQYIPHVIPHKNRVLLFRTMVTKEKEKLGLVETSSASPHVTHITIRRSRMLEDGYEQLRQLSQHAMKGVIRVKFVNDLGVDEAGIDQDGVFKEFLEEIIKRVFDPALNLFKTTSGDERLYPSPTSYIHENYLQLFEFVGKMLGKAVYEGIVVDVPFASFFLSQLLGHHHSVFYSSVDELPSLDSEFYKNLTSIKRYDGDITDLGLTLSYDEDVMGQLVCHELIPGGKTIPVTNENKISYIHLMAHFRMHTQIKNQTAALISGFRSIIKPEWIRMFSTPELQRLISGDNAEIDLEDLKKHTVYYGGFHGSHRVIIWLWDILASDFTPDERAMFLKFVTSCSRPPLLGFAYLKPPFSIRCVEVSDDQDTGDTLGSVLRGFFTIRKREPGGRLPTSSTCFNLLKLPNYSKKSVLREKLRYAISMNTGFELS
Source text: as §1

[5] = 500 uM, read-out: percent inhibition

Row | inhibition at 100 µM ([4]; 100 uM, read-out: KB05_100 uM_percent_inhibition) [%] | inhibition at 500 µM ([4]; 500 uM, read-out: KB05_500 uM_percent_inhibition) [%] | SMILES | inhibition at 100 µM [1] [%] | inhibition at 100 µM [2] [%] | inhibition at 500 µM [3, 5] [%] | inhibition at 100 µM ([3]; 100 uM, read-out: percent inhibition) [%] | inhibition at 100 µM ([4]; 100 uM, read-out: KB02_100 uM_percent_inhibition) [%] | inhibition at 500 µM ([4]; 500 uM, read-out: KB02_500 uM_percent_inhibition) [%] | percent_inhibition ([1]; 100 uM) [%] | percent_inhibition ([2]; 100 uM) [%] | percent inhibition ([3]; 500 uM) [%] | KB03_100 uM_percent_inhibition ([4]; 100 uM) [%] | KB03_500 uM_percent_inhibition ([4]; 500 uM) [%]
1 | 8 | 64 | C=CC(=O)N(c1ccccc1)c1ccc(Br)cc1 [KB05] | 48 | 59 | 23 |  |  |  |  |  |  |  | 
2 |  |  | COc1ccc2c(c1)CCCN2C(=O)CCl [KB02] | 14 | 35 | 37 | 2 | 42 | 86 |  |  |  |  | 
3 |  |  | O=C(CCl)Nc1cc(C(F)(F)F)cc(C(F)(F)F)c1 [KBO3] |  |  |  |  |  |  | 30 | 83 | 16 | 33 | 56
